From the NIST ThermoML archive (doi:10.1021/je100734t)

Test: xn = mol fraction of the nth substance listed
Conditions: 101 kPa, Liquid; for speed of sound: Pulse-echo method

Cc1cccc(C)c1 [1,3-dimethylbenzene] + CCCCCCCCCCO
Conditions	mass density, 293.15 K [kg/m3]	mass density, 303.15 K [kg/m3]	mass density, 313.15 K [kg/m3]	speed of sound, 293.15 K [m/s]	speed of sound, 303.15 K [m/s]	speed of sound, 313.15 K [m/s]
x1 = 0.0627	831.48	824.51	817.53	1392	1358	1324
x1 = 0.1424	833.39	826.27	819.18	1388	1352	1318
x1 = 0.2052	834.93	827.72	820.53	1383	1347	1312
x1 = 0.2618	836.35	829.06	821.78	1379	1343	1308
x1 = 0.3217	837.9	830.53	823.14	1375	1338	1302
x1 = 0.3934	839.84	832.37	824.85	1369	1332	1296
x1 = 0.4989	842.94	835.28	827.6	1361	1324	1287
x1 = 0.5581	844.81	837.05	829.26	1357	1319	1282
x1 = 0.6343	847.44	839.52	831.6	1352	1313	1276
x1 = 0.7131	850.41	842.31	834.24	1348	1308	1270
x1 = 0.7991	853.99	845.71	837.47	1344	1304	1265
x1 = 0.8465	856.11	847.74	839.4	1342	1302	1262
x1 = 0.8964	858.52	850.09	841.61	1341	1300	1260
x1 = 0.9421	860.9	852.38	843.82	1341	1300	1259
x1 = 1	864.18	855.56	846.9	1340	1300	1259

CCCCCCCCCCO [decan-1-ol] + Cc1ccccc1C
Conditions	mass density, 293.15 K [kg/m3]	mass density, 303.15 K [kg/m3]	mass density, 313.15 K [kg/m3]	speed of sound, 293.15 K [m/s]	speed of sound, 303.15 K [m/s]	speed of sound, 313.15 K [m/s]
x2 = 0	829.98	823.1	816.27	1396	1362	1329
x2 = 0.0766	832.48	825.52	818.51	1394	1359	1325
x2 = 0.1331	834.38	827.33	820.23	1391	1356	1322
x2 = 0.1823	836.1	828.96	821.79	1389	1354	1319
x2 = 0.2509	838.57	831.31	824.05	1386	1350	1315
x2 = 0.3173	841.06	833.71	826.36	1383	1347	1311
x2 = 0.3896	843.95	836.48	829.02	1379	1343	1307
x2 = 0.4556	846.73	839.16	831.61	1376	1339	1303
x2 = 0.5261	849.91	842.23	834.57	1372	1335	1298
x2 = 0.6054	853.77	845.95	838.18	1369	1332	1294
x2 = 0.6597	856.61	848.71	840.85	1367	1329	1292
x2 = 0.7364	860.94	852.91	844.92	1365	1327	1289
x2 = 0.8029	865.03	856.89	848.8	1364	1325	1287
x2 = 0.873	869.74	861.49	853.27	1364	1325	1287
x2 = 0.9447	875.04	866.72	858.33	1366	1326	1287
